This note sets out measurements from patent US7696354B2, “Cephem compounds having broad antibacterial spectrum” (Shionogi & Co., Ltd., priority 2002, dated 2010).

Structures are written as SMILES. Converted amounts (≈) assume the structure as drawn.

What all share (type): cell-based
In test [1] the test system is E. cloacae SR4321 (Bla++). Nature of the test: MIC by agar dilution method, E. cloacae SR4321 (Bla++). As to conditions: AmpC High-Production Cephem Resistant Strain; for MIC: Enterobacter cloacae, read-out: MIC (minimum inhibitory concentration) E. cloacae SR4321 (Bla++). The protocol:
(§1) The MIC (minimum inhibitory concentration) value of the invention compounds against various bacterial was determined by the usual agar dilution method.
(Agar dilution tests growth on a series of plates holding different concentrations.)

Test [2] relates to S. aureus SR3637 (H-MRSA). Nature of the test: MIC by agar dilution method, S. aureus SR3637 (H-MRSA). As to conditions: Methicillin High-Resistant Staphylococcus Aureus; for MIC: MRSA, read-out: MIC (minimum inhibitory concentration) S. aureus SR3637 (H-MRSA). As for the experimental part:
as §1

In test [3] the test system is S. epidermidis SR25009 (MRSE). Nature of the test: MIC by agar dilution method, S. epidermidis SR25009 (MRSE). As to conditions: Methicillin High-Resistant Staphylococcus Epidermidis; for MIC: MRSE, read-out: MIC (minimum inhibitory concentration) S. epidermidis SR25009 (MRSE). The protocol:
as §1

In the next test the test system is P. aeruginosa SR24-12. Nature of the test: MIC by agar dilution method, P. aeruginosa SR24-12. As to conditions: for MIC: Pseudomonas aeruginosa, SR2412, AmpC High-Production Cephem Resistant Strain, read-out: MIC (minimum inhibitory concentration) P. aeruginosa SR24-12. The protocol:
as §1

`CC(C)(O/N=C(\C(=O)NC1C(=O)N2C(C(=O)[O-])=C(C[n+]3ccccc3)CSC12)c1nc(N)sc1Cl)C(=O)O` (stereo not drawn) [Ex. 3]: the MIC in test [1] is 16 µg/mL (≈ 27.5 µM); in test [2], 32 µg/mL (≈ 55.1 µM); in test [3], 32 µg/mL (≈ 55.1 µM); in the test with P. aeruginosa SR24-12 it was 8 µg/mL (≈ 13.8 µM).
On to `CNCCCn1ccc2c1ccc[n+]2CC1=C(C(=O)[O-])N2C(=O)C(NC(=O)/C(=N\O[C@H](C)C(=O)O)c3nc(N)sc3Cl)C2SC1` (stereo partly drawn) [Ex. 8], for which the MIC stood at 4 µg/mL (≈ 5.91 µM) in test [1], 32 µg/mL (≈ 47.3 µM) in test [2], 32 µg/mL (≈ 47.3 µM) in test [3] and 4 µg/mL (≈ 5.91 µM) in the test with P. aeruginosa SR24-12.
On to `C=C(O/N=C(\C(=O)NC1C(=O)N2C(C(=O)[O-])=C(C[n+]3cccc4c3ccn4CCCNC)CSC12)c1nc(N)sc1Cl)C(=O)O` (stereo not drawn) [Ex. 19], for which the MIC in test [1] came out at 1 µg/mL (≈ 1.48 µM); in test [2], 16 µg/mL (≈ 23.7 µM); in test [3], 8 µg/mL (≈ 11.8 µM); with P. aeruginosa SR24-12 it was 8 µg/mL (≈ 11.8 µM).
Regarding `CNCCCn1ccc2c1ccc[n+]2CC1=C(C(=O)[O-])N2C(=O)C(NC(=O)/C(=N\OC(C)(C)C(=O)O)c3nc(N)sc3Br)C2SC1` (stereo not drawn) [Ex. 20], the MIC in test [1] is 8 µg/mL (≈ 10.9 µM); in test [2], 16 µg/mL (≈ 21.7 µM); in test [3], 16 µg/mL (≈ 21.7 µM); in the test with P. aeruginosa SR24-12, 4 µg/mL (≈ 5.44 µM).
As to `CNCCCn1c(N)nc2c1ccc[n+]2CC1=C(C(=O)[O-])N2C(=O)[C@@H](NC(=O)/C(=N\O[C@@H](C)C(=O)O)c3nc(N)sc3Cl)C2SC1` (stereo partly drawn) [Ex. 79], the MIC worked out at 2 µg/mL (≈ 2.89 µM) in test [1], 8 µg/mL (≈ 11.5 µM) in test [2], 8 µg/mL (≈ 11.5 µM) in test [3] and 4 µg/mL (≈ 5.77 µM) in the test on P. aeruginosa SR24-12.
In the case of `C[C@H](N)Cn1c(N)nc2c1ccc[n+]2CC1=C(C(=O)[O-])N2C(=O)C(NC(=O)/C(=N\O[C@@H](C)C(=O)O)c3nc(N)sc3Cl)C2SC1` (stereo partly drawn) [Ex. 98], the MIC is 2 µg/mL (≈ 2.94 µM) in test [1], 8 µg/mL (≈ 11.8 µM) in test [2], 8 µg/mL (≈ 11.8 µM) in test [3] and 2 µg/mL (≈ 2.94 µM) in the test with P. aeruginosa SR24-12.
With `CNCCNc1cc[n+](CC2=C(C(=O)[O-])N3C(=O)[C@@H](NC(=O)/C(=N\O[C@@H](C)C(=O)O)c4nc(N)sc4Cl)[C@H]3SC2)cc1` [Ex. 124], the MIC in test [1] worked out at 4 µg/mL (≈ 6.26 µM); in test [2] it was 16 µg/mL (≈ 25 µM); in test [3], 8 µg/mL (≈ 12.5 µM); in the test on P. aeruginosa SR24-12, 4 µg/mL (≈ 6.26 µM).
In the case of `C[C@H](O/N=C(\C(=O)N[C@@H]1C(=O)N2C(C(=O)[O-])=C(C[n+]3ccc(NC4CCNC4)cc3)CS[C@H]12)c1nc(N)sc1Cl)C(=O)O` (stereo partly drawn) [Ex. 132], the MIC in test [1] came out at 4 µg/mL (≈ 6.14 µM); in test [2], 16 µg/mL (≈ 24.6 µM); in test [3] it was 8 µg/mL (≈ 12.3 µM); in the test on P. aeruginosa SR24-12, 4 µg/mL (≈ 6.14 µM).
For the compound `CC(C)(O/N=C(\C(=O)N[C@@H]1C(=O)N2C(C(=O)[O-])=C(C[n+]3ccccc3)CS[C@H]12)c1csc(N)n1)C(=O)O` [Ref. 1, Ceftazidime, reference compound], the “MIC (minimum inhibitory concentration) E. cloacae SR4321 (Bla++)” value in test [1] is 64 µg/mL (≈ 117 µM). In test [2], the “MIC (minimum inhibitory concentration) S. aureus SR3637 (H-MRSA)” value was >128 µg/mL. Also, the “MIC (minimum inhibitory concentration) S. epidermidis SR25009 (MRSE)” value in test [3] is >128 µg/mL. The “MIC (minimum inhibitory concentration) P. aeruginosa SR24-12” value in the test with P. aeruginosa SR24-12 (AmpC High-Production Cephem Resistant Strain) is 64 µg/mL (≈ 117 µM).
